Results taken from ChEMBL document CHEMBL3045760, “Bioactive xanthones with effect on P-glycoprotein and prediction of intestinal absorption” (Med Chem Res, 2013).
Activity calls are given as the source filed them. The calls are words filed in the database; no cut-off is given here.

Legend:
[1] = biological target: T1, ATP-dependent translocase ABCB1 (Homo sapiens, UniProt P08183); assay: Activation of P-glycoprotein in doxorubicin-resistant Homo sapiens (human) K562 cells overexpressing P-gp assessed as decrease in intracellular Rh123 accumulation at 10 to 20 uM after 1 hr by flow cytometric analysis; assay type: cell-based; settings: k562, 1 h
[2] = (§1) Drug recovery in Homo sapiens (human) Caco2 cells at 100 uM by HPLC-UV analysis; assay type: ADME, cell-based, Caco-2; settings: Caco-2, read-out: Drug recovery
[3] = Apparent permeability from apical to basolateral side of Homo sapiens (human) Caco2 cells at 100 uM by HPLC-UV analysis; assay type: ADME, cell-based; settings: Caco-2
[4] = biological target: T1, ATP-dependent translocase ABCB1; assay: Inhibition of P-glycoprotein in doxorubicin-resistant Homo sapiens (human) K562 cells overexpressing P-gp assessed as increase in intracellular Rh123 accumulation at 10 to 20 uM after 1 hr by flow cytometric analysis; assay type: cell-based; settings: k562, 1 h
Caco-2 = assay: as §1; assay type: ADME, cell-based; settings: caco-2, 100 µM
Homo sapiens = species: Homo sapiens; assay: Non-competitive inhibition of Homo sapiens (human) P-glycoprotein ATPase activity at 200 uM after 40 min by luminescence analysis

T1 sequence (P08183 whole entry): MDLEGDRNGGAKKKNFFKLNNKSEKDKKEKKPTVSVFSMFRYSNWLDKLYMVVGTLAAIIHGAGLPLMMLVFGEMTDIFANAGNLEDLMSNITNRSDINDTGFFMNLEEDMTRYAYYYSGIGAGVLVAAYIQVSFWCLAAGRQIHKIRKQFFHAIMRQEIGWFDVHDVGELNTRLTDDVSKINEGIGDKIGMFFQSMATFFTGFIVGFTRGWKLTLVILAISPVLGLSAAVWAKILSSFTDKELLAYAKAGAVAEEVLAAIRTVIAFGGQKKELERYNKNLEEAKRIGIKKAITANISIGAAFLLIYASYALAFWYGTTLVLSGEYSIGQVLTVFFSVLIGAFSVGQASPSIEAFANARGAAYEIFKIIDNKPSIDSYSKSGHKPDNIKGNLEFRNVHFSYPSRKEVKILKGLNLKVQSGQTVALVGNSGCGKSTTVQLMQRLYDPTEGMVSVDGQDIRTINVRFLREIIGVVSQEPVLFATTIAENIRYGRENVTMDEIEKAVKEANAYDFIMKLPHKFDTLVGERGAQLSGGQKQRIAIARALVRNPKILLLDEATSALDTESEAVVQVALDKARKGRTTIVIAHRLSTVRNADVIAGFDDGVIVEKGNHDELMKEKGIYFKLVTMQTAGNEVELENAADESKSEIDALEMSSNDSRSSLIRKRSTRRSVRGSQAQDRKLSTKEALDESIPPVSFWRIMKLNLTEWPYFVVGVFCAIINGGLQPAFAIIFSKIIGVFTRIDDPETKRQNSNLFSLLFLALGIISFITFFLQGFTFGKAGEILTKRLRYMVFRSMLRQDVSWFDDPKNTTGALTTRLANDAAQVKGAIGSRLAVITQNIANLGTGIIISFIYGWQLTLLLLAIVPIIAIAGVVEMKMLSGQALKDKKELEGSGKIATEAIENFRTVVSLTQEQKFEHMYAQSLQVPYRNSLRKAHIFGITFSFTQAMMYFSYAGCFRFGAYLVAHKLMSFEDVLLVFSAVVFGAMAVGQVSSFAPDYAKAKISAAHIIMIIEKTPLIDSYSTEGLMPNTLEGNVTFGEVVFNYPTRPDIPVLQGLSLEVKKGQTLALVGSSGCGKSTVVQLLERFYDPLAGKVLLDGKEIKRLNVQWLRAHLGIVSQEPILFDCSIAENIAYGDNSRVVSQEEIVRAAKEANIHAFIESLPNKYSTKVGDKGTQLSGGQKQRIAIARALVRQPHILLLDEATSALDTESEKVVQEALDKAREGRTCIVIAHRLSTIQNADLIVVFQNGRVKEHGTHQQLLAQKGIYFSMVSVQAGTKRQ

| Compound | Activity [1] | recovery at 100 µM [2] [%] | Papp A→B at 100 µM [3] [×10⁻⁶ cm/s] | inhibition (INH) [4] | Drug recovery (Caco-2) [%] | inhibition (Homo sapiens) |
| --- | --- | --- | --- | --- | --- | --- |
| O=c1c2ccccc2oc2ccc(O)c(O)c12 | Active | 40.7 | 15.2 | – | – | – |
| COc1ccc(CCN(C)CCCC(C#N)(c2ccc(OC)c(OC)c2)C(C)C)cc1OC (stereo not given) | – | – | – | Active | – | – |
| COc1cc(C2Oc3ccc4c(=O)c5ccccc5oc4c3OC2CO)ccc1O (stereo not given) | – | – | 14.4 | Active | 164.7 | Active |
| O=c1c2ccccc2oc2c(O)c(O)ccc12 [3,4-DIHYDROXYXANTHONE] | Active | 53.6 | 19.4 | – | – | – |
| CC1(C)CCc2cc3c(=O)c4ccccc4oc3c(O)c2O1 | – | 29.4 | 14.2 | Active | – | Active |
